Target: Potassium channel subfamily K member 9 (Homo sapiens, UniProt Q9NPC2)
Test: Inhibition of Recombinant TASK-1 and TASK-3 In Vitro: The investigations on the inhibition of the recombinant TASK-1 and TASK-3 channels were conducted using stably transfected CHO cells. The compounds according to the invention were tested in this case by application of 40 mM potassium chloride in the presence of a voltage-sensitive dye according to the method described in detail in the following references [Whiteaker et al., Validation of FLIPR membrane potential dye for high-throughput screening of potassium channel modulators, J. Biomol. Screen. 6 (5), 305-312 (2001); Molecular Devices FLIPR Application Note: Measuring membrane potential using the FLIPR® membrane potential assay kit on Fluorometric Imaging Plate Reader (FLIPR®) systems, http://www.moleculardevices.com/reagents-supplies/assay-kits/ion-channels/flipr-membrane-potential-assay-kits]. The activity of the test substances was determined as their ability to inhibit a depolarization induced in the recombinant cells by 40 mM potassium chloride. The concentration which can block half of this depolarization is referred to as IC50.
Type: cell-based

Potassium channel subfamily K member 9, sequence (Q9NPC2 whole entry): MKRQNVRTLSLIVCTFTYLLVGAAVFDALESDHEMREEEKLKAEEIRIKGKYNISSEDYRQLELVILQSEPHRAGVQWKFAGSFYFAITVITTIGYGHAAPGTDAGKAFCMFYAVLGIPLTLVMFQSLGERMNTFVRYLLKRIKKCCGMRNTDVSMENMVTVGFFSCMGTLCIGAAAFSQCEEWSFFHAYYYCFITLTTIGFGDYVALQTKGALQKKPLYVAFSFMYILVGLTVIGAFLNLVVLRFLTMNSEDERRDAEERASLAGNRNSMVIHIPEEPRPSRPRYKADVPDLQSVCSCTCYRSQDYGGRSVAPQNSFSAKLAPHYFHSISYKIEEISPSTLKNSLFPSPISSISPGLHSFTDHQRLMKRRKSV

In the case of `CNc1cccc(C(=O)N2C3CCC2CN(Cc2c(-c4ccc(Cl)cc4)nc4ncccn24)C3)n1`, the IC50 is reported as 1.5 µM.
